Reference: US20100021936A1, “Sensor for Spores” (priority 2007, published 2010)

How the values were obtained:
[1] = test system: B. megaterium QM B1551 "receptorless" spore; format: cell-based, Bacillus megaterium
[2] = test system: antibody-immobilised spores; format: cell-based
[3] = test system: Bacillus megaterium QM B1551 spores; format: cell-based
[4] = test system: CwlJ knock-out strain of Bacillus megaterium; format: cell-based

SMILES | germination response of receptorless spores [1] | germination response by micrographs [2] | concentration of Ca-DPA at which spores germinate [3] | germination in response to exogenous Ca-DPA [4]
C[C@H](N)C(=O)O [L-alanine] | lost the ability to respond | transition from phase bright spores to phase dark |  | 
O=C(O)c1cccc(C(=O)O)n1 [Ca-DPA, dipicolinic acid] |  |  | ~30 mM | does not germinate
